Assay results published in article PMC2884014 (Biochemistry, 2010).
Where two headings read alike, the source gives them in different places.

Experiments:
Type in all cases: biochemical
[1] = molecular target: T1, MurA (UDP-N-acetylglucosamine 1-carboxyvinyltransferase) (Enterobacter cloacae, UniProt P33038); experiment: crystal structure at […] Å
[2] = molecular target: T1, MurA (UDP-N-acetylglucosamine 1-carboxyvinyltransferase); experiment: crystal structure at […] Å; remark: listed apart in the source
[3] = molecular target: MurA (UDP-N-acetylglucosamine 1-carboxyvinyltransferase) (Escherichia coli, UniProt P0A749); experiment: malachite green assay of residual MurA activity
Sequence of MurA (UDP-N-acetylglucosamine 1-carboxyvinyltransferase) (Escherichia coli, UniProt P0A749) (P0A749 whole entry): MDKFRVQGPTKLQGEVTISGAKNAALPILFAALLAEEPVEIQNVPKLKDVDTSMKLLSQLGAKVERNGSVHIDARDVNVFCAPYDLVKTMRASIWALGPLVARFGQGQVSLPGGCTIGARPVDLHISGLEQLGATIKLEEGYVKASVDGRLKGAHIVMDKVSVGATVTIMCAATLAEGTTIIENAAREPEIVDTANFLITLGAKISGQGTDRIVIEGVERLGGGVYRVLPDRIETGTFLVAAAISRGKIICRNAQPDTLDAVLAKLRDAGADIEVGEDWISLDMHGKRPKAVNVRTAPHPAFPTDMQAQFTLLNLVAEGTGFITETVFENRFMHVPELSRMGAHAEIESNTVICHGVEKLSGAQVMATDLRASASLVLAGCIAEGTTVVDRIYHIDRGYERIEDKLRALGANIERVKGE

T1 sequence (P33038 whole entry): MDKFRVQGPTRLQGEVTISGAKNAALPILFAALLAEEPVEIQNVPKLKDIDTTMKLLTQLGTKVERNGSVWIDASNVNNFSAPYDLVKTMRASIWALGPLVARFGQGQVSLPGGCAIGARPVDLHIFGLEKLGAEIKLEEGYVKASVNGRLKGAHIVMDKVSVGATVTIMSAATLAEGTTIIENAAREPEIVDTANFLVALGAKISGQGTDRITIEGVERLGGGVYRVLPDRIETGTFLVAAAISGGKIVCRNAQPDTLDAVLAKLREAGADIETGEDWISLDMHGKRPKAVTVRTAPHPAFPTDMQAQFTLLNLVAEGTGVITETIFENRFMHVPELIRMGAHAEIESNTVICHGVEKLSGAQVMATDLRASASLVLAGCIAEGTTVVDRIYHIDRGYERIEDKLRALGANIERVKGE

With `C[C@@H]1O[C@@H]1P(=O)(O)O` [fosfomycin, (1R,2S)-1,2-epoxypropyl phosphonic acid] the IC50 [1] was 250 ± 10 nM.
With `CC1=C(O)C(=O)[C@@H]2O[C@@H]2C1=O` [terreic acid] the IC50 [2] was 14 ± 0.6 µM and the “malachite green assay of residual MurA activity” value [3] was “terreic acid is a covalent inhibitor of the bacterial cell wall biosynthetic enzyme MurA from E. cloacae and E. coli in-vitro”.
